This is an account of results in BindingDB's records for patent US10202378 (Genentech, 2019).

Some results are limits rather than exact numbers.

Test [1] has as its target T1, Transcription initiation factor TFIID subunit 1 [1504-1635] (Homo sapiens, UniProt P21675).
T1 construct: 1504-1635
T1 sequence (P21675 whole entry): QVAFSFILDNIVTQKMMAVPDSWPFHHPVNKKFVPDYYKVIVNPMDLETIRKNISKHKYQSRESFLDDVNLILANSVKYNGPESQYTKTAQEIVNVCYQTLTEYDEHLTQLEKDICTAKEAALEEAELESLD
In words: TR-FRET Binding Assay. The procedure: After a 10 minute incubation at room temperature, biotin-ligand (0.04 uM final) was added. […] After forty minutes of equilibration at room temperature, the plates were read on an Envision instrument and IC50s calculated using a four parameter logistic model (XLFIT).
(In general: Time-resolved FRET reads energy transfer from a long-lived donor to a nearby acceptor.)

Test [2] has as its target T2, Transcription initiation factor TFIID subunit 1 [1381-1497] (Homo sapiens, UniProt P21675).
T2 construct: 1381-1497
T2 sequence (P21675 whole entry): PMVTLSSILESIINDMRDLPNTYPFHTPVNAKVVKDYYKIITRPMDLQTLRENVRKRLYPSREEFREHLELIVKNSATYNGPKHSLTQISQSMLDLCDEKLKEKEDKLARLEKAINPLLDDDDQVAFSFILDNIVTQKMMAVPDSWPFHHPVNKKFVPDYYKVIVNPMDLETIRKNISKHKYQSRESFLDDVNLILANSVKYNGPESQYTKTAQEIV
Put plainly: TAF1-BD1 TR-FRET Binding Assay. The procedure:
Specifically, in a 384 well ProxiPlate, TAF1-BDI (0.08 uM final) in 50 mM HEPES (pH 7.5; final), 50 mM NaCl (final), 1 mM TCEP (final), 0.1 mg/mL BSA (final), and 0.069 mM Brij-35 (final) was added either in the presence of DMSO (final 0.2% DMSO) or compound dilution series in DMSO. After a 10 minute incubation at room temperature, biotin-ligand (0.08 uM final) was added. After 10 minutes incubation at room temperature, a mixture Eu-W1024 Anti-6×His antibody (Perkin Elmer ADO 110) and SureLight Streptavidin-Allophycocyanin (SA-APC, Perkin Elmer CR130-100) were added to final concentrations of 0.2 nM antibody and 0.05 uM SA-APC, respectively. After forty minutes of equilibration at room temperature, the plates were read on an Envision instrument and IC50s calculated using a four parameter logistic model (XLFIT).

The IC50 is the concentration that gives 50% inhibition. For `CCOC(=O)c1c(C)[nH]c2c(=O)n(C)cc(C#CC(C)(O)CC)c12` (stereo unspecified) [US10202378, Example 65], the results for the IC50 in test [1] and in test [2] were 135 nM and 826 nM, respectively.

Turning to `CCC(C)(C)OC(=O)c1c(C)[nH]c2c(=O)n(C)cc(C#CC(C)(O)C3CC3)c12` (stereo unspecified) [US10202378, Example 138], the IC50 was found to be 47.9 nM in test [1] and 251 nM in test [2].

With `CCOC(=O)c1c(C)[nH]c2c(=O)n(C)cc(C#CC(C)(O)CO)c12` (stereo unspecified) [US10202378, Example 66], the IC50 in test [1] is 100 nM; in test [2] it was 798 nM.

Consider `CCOC(=O)c1c(C)[nH]c2c(=O)n(C)cc(C#CC(C)(O)C3CCOC3)c12` (stereo unspecified) [US10202378, Example 7], for which the figures for the IC50 in test [1] and in test [2] were 181 nM and 607 nM, respectively.

As for `CCOC(=O)c1c(C)[nH]c2c(=O)n(C)cc(C#CC(C)(O)c3cccc(C)c3)c12` (stereo unspecified) [US10202378, Example 29], the IC50 in test [1] stood at 50.9 nM; in test [2], 303 nM.

Regarding `Cc1[nH]c2c(=O)n(C)cc(C#CC(C)(O)c3ccccc3)c2c1C(=O)OC(C)C` (stereo unspecified) [US10202378, Example 161], the IC50 in test [1] came to 51.1 nM; in test [2] it was 274 nM.

`CCOC(=O)c1c(C)[nH]c2c(=O)n(C)cc(C#CC(C)(O)C3CC3)c12` (stereo unspecified) [US10202378, Example 77]: the 50% inhibitory concentration (IC50) came out at 49 nM in test [1] and 243 nM in test [2].

Regarding `Cc1[nH]c2c(=O)n(C)cc(C#CC(C)(C)O)c2c1C(=O)OC(C)C(C)C` (stereo unspecified) [US10202378, Example 152], the figures for the IC50 in test [1] and in test [2] were 53.6 nM and 235 nM, respectively.

As to `CN(C)C(=O)c1c[nH]c2c(=O)n(C)cc(C#CC(C)(C)O)c12` [US10202378, Example 171], the results for the IC50 in test [1] and in test [2] were 1730 nM and 4420 nM, respectively.

With `CCOC(=O)c1c(C)[nH]c2c(=O)n(CC3CC3)cc(C#CC(C)(C)O)c12` [US10202378, Example 52], the IC50 stood at 155 nM in test [1] and 8660 nM in test [2].

For the molecule `CCOC(=O)c1c(C)[nH]c2c(=O)n(C)cc(C#CC(O)(c3ccc(N(C)C)cc3)C(F)(F)F)c12` (stereo unspecified) [US10202378, Example 3], the IC50 was determined as 86.3 nM in test [1] and 209 nM in test [2].

In the case of `CCOC(=O)c1c(C)[nH]c2c(=O)n(C)cc(C#CC3(O)CCN(C(C)=O)CC3)c12` [US10202378, Example 11], the IC50 in test [1] worked out at 80 nM; in test [2] it was 1490 nM.

`CCOC(=O)c1c(C)[nH]c2c(=O)n(C)cc(C#CC(C)(C)N)c12` [US10202378, Example 67]: the IC50 in test [1] worked out at 4110 nM; in test [2], 5210 nM.

Turning to `Cc1[nH]c2c(=O)n(C)cc(C#CC(C)(O)C3CC3)c2c1-c1nnc(CO)o1` (stereo unspecified) [US10202378, Example 206], the IC50 in test [1] amounted to 73.5 nM; in test [2], 425 nM.

For the molecule `CC(=O)N1CCC(COC(=O)c2c(C)[nH]c3c(=O)n(C)cc(C#CC(C)(C)O)c23)CC1` [US10202378, Example 144], the figures for the IC50 in test [1] and in test [2] were 20.1 nM and 267 nM, respectively.

For `CC(=O)NCCCOC(=O)c1c(C)[nH]c2c(=O)n(C)cc(C#CC(C)(O)C3CC3)c12` (stereo unspecified) [US10202378, Example 140], the IC50 in test [1] stood at 37.5 nM; in test [2] it was 350 nM.

Regarding `CCOC(=O)c1c(C)[nH]c2c(=O)n(C)cc(C#CC(C)(O)CNc3ccccc3)c12` (stereo unspecified) [US10202378, Example 14], the IC50 was 14800 nM in test [1] and above 20000 nM in test [2].

`CCOC(=O)c1c(C)[nH]c2c(=O)n(C)cc(C#CC3(O)CCN(C(=O)CC)CC3)c12` [US10202378, Example 10]: the IC50 in test [1] was 58.9 nM; in test [2] it was 2230 nM.

Consider `Cc1[nH]c2c(=O)n(C)cc(C#CC(C)(C)O)c2c1C(=O)OCC1CC1` [US10202378, Example 155], for which the IC50 in test [1] was found to be 52.8 nM; in test [2] it was 274 nM.

Regarding `CCOC(=O)c1c(C)[nH]c2c(=O)n(C)cc(C#CC(C)(O)C3(C)CC3)c12` (stereo unspecified) [US10202378, Example 4], the figures for the IC50 in test [1] and in test [2] were 72.7 nM and 352 nM, respectively.

Take `CCC(C)C(C)OC(=O)c1c(C)[nH]c2c(=O)n(C)cc(C#CC(C)(C)O)c12` (stereo unspecified) [US10202378, Example 145]: the IC50 is 53.3 nM in test [1] and 272 nM in test [2].

As to `Cc1cc([C@](C)(O)C#Cc2cn(C)c(=O)c3[nH]c(C)c(C(=O)OC(C)C(C)C)c23)no1` (stereo partly specified) [US10202378, Example 142], the IC50 is 52.8 nM in test [1] and 160 nM in test [2].

As to `CCOC(=O)c1c(C)[nH]c2c(=O)n(C)cc(C#CC(C)(O)c3nccs3)c12` (stereo unspecified) [US10202378, Example 68], the IC50 in test [1] was found to be 122 nM; in test [2], 521 nM.
